One test concerns the target T1, PARP (Homo sapiens, UniProt P09874).
T1 construct: purchased Trevigen 4684-096-K HT (kit); 4684-096-01 (PARP enzyme)
The test can be described thus: PARP ELISA (ELISA-based colorimetric PARP/Apoptosis Assay kit, Trevigen). The class given is biochemical. The note with it: pIC50=-log10 IC50, IC50 in mol/L; inhibition of PARP catalytic activity. The method, then:
Inhibition Constant (IC50) from PARP ELISA
After 10 minutes of catalysis the reaction is quenched by solvent aspiration followed by irrigation of the assay wells 4 times with phosphate buffered saline (PBS) containing 0.1% t-Octylphenoxypolyethoxyethanol (Triton® X-100). Mouse Anti-poly ADP ribose (PAR) monoclonal antibody, goat antimouse immunoglobulin G (IgG)-horse radish peroxidase (HRP) conjugate and HRP substrate are added according to the manufacture's specifications to generate a colorimetric signal proportional to PARP catalytic activity.

In a further test the test system is Jurkat cell line. The test can be described thus: PARP cellular chemopotentiation assay (MTS, with/without TMZ). The note with it: Chemopotentiation factor: ratio of EC50 values of Jurkat cells co-treated without and with 100 μM TMZ; 96 hours. The class given is cell-based. The method, then:
Potentiation Factor (PF50) Determination from PARP Cellular Chemopotentiation Assay
Jurkat cell line was maintained according to the supplier (American Type Culture Collection (Rockville, Md.)). Cells were seeded in 96-well tissue culture microplates at 10,000 cells per well and cultured for 24 hours prior to addition of compounds, TMZ (Temozolomide) or DMSO (dimethylsulfoxide) vehicle. After 96 hours of treatment, the conversion of MTS ([3-(4,5-dimethylthiazol-2-yl)-5-(3-carboxymethoxyphenyl)-2-(4-sulfophenyl)-2H-tetrazolium, inner salt], Promega, Madison, Wis.) by metabolically active cells was determined through measuring the OD490 nm with a Spectramax microplate reader (Molecular Devices, San Diego, Calif.). To generate concentration-response curves, cells were treated in duplicate with a range of serial compound dilutions (final DMSO concentration was 0.5%) in the absence or presence of 100 μM TMZ chemoreagent. The percentage of viable cells per well was calculated by correction for background and normalizing against DMSO-treated cells. EC50 values for inhibition of cell viability were calculated using XLfit4 MicroSoft Excel curve-fitting software. Chemopotentiation factor PF50 was calculated as the ratio of EC50 values of cells co-treated without and with TMZ, respectively.

The text below walks through data of patent US8669249B2, “Poly (ADP-ribose) polymerase (PARP) inhibitors” (Takeda Pharmaceutical Company Limited, priority 2009, dated 2014).

T1 sequence (P09874 whole entry): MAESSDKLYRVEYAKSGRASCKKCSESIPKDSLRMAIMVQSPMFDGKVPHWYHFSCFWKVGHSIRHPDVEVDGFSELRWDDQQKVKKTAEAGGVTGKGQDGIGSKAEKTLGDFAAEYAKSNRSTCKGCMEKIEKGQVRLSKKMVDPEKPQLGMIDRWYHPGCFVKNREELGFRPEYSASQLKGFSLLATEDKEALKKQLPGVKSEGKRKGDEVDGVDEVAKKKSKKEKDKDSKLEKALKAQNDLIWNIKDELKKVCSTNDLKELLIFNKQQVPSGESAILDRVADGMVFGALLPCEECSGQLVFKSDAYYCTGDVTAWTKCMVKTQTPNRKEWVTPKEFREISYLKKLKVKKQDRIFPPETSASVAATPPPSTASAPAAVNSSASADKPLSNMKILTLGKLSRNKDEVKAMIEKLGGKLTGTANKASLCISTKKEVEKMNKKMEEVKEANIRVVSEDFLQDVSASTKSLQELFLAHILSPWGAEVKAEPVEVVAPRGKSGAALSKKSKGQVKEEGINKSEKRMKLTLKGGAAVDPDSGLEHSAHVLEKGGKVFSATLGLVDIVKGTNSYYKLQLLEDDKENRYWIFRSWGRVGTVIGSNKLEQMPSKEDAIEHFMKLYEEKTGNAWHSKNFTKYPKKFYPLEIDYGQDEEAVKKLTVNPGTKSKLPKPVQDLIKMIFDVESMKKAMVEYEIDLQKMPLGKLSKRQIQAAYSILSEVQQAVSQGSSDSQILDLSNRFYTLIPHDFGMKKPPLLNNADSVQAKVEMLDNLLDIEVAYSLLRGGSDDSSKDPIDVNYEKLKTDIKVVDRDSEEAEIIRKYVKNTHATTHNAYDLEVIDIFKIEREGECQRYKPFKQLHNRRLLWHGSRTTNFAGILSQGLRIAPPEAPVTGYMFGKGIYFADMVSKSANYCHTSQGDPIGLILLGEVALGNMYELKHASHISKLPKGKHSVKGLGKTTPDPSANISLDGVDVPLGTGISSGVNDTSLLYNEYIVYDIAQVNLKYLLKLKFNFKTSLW

For the molecule `CC(=O)c1ccc(N2CCN(Cc3ccc4c(c3)NC(=O)C(C)O4)CC2)cc1` (centres unmarked) [Compound 218, 6-((4-(4-Acetylphenyl)piperazin-1-yl)methyl)-2-methyl-2H-benzo[b][1,4]oxazin-3(4H)-one], the IC50 (as a rule, the concentration needed to halve the response being measured) against PARP is at least 126 nM. In addition, the PF50 result in the test on Jurkat cell line was “≦0.9”.

`CC1Oc2cc(F)c(CN3CC=C(c4ccc(Cl)cc4)CC3)cc2NC1=O` (centres unmarked) [Compound 331, 6-((4-(4-Chlorophenyl)-5,6-dihydropyridin-1(2H)-yl)methyl)-7-fluoro-2-methyl-2H-benzo[b][1,4]oxazin-3(4H)-one]: the 50% inhibitory concentration (IC50) on PARP was over 200 nM. Besides, the PF50 in the test on Jurkat cell line is reported as 1.3.

With `CCNC(=O)c1ccc(N2CCN(Cc3cc4c(c(OC)c3)OC(C)C(=O)N4)CC2)c(Cl)c1` (centres unmarked) [Compound 361, 3-Chloro-N-ethyl-4-(4-((8-methoxy-2-methyl-3-oxo-3,4-dihydro-2H-benzo[b][1,4]oxazin-6-yl)methyl)piperazin-1-yl)benzamide], the IC50 at PARP is 25.1 nM. The PF50 in the test with Jurkat cell line is over 3500.

In the case of `CNC(=O)c1ccc(N2CCN(Cc3cc4c(c(OC)c3)OCC(=O)N4)CC2)c(C)c1` [Compound 376, 4-(4-((8-Methoxy-3-oxo-3,4-dihydro-2H-benzo[b][1,4]oxazin-6-yl)methyl)piperazin-1-yl)-N,3-dimethylbenzamide], inhibition on PARP was half-maximal at 15.8 nM (IC50). Further, the PF50 in the test on Jurkat cell line was over 6.0.

As to `CCOc1cc(CN2CCN(c3ccc(C(=O)NC4CC4)cc3C)CC2)cc2c1OC(C)C(=O)N2` (centres unmarked) [Compound 402, N-Cyclopropyl-4-(4-((8-ethoxy-2-methyl-3-oxo-3,4-dihydro-2H-benzo[b][1,4]oxazin-6-yl)methyl)piperazin-1-yl)-3-methylbenzamide], the IC50 on PARP is 39.8 nM. The PF50 in the test with Jurkat cell line is over 10000.

`Cc1cc(C(=O)NC2CC2)ccc1N1CCN(Cc2cc(C)c3c(c2)NC(=O)C(C)O3)CC1` (centres unmarked) [Compound 386, N-Cyclopropyl-4-(4-((2,8-dimethyl-3-oxo-3,4-dihydro-2H-benzo[b][1,4]oxazin-6-yl)methyl)piperazin-1-yl)-3-methylbenzamide] showed an IC50 on PARP of 50.1 nM. In addition, the PF50 in the test with Jurkat cell line is over 5.0.

At PARP, `CCNC(=O)c1ccc(N2CCN(Cc3cc4c(c(OCC)c3)OC(C)C(=O)N4)CC2)c(Cl)c1` (centres unmarked) [Compound 399, 3-Chloro-4-(4-((8-ethoxy-2-methyl-3-oxo-3,4-dihydro-2H-benzo[b][1,4]oxazin-6-yl)methyl)piperazin-1-yl)-N-ethylbenzamide] had an IC50 of 63.1 nM. In addition, the PF50 in the test on Jurkat cell line is over 4.0.

Turning to `CNC(=O)c1ccc(N2CCC(Cc3ccc4c(c3)NC(=O)C(C)O4)CC2)cc1` (centres unmarked) [Compound 390, N-Methyl-4-(4-((2-methyl-3-oxo-3,4-dihydro-2H-benzo[b][1,4]oxazin-6-yl)methyl)piperidin-1-yl)benzamide], the IC50 against PARP was over 200 nM. In addition, the PF50 in the test on Jurkat cell line amounted to 1.0.

Consider `CCCc1cc(CN2CCN(c3ccc(C(=O)NC)cc3)CC2)cc2c1OC(C)C(=O)N2` (centres unmarked) [Compound 358, N-Methyl-4-(4-((2-methyl-3-oxo-8-propyl-3,4-dihydro-2H-benzo[b][1,4]oxazin-6-yl)methyl)piperazin-1-yl)benzamide], for which the IC50 against PARP is over 200 nM. For the same molecule, the PF50 with Jurkat cell line is over 3.0.

In the case of `CCNC(=O)c1ccc(N2CCN(Cc3ccc4c(c3)NC(=O)C(C)O4)CC2)c(Cl)c1` (centres unmarked) [Compound 371, 3-Chloro-N-ethyl-4-(4-((2-methyl-3-oxo-3,4-dihydro-2H-benzo[b][1,4]oxazin-6-yl)methyl)piperazin-1-yl)benzamide], inhibition against PARP was half-maximal at 15.8 nM (IC50). The PF50 with Jurkat cell line is given as over 20.

For the molecule `CNC(=O)c1ccc(N2CCN(Cc3cc4c(c(C5CC5)c3)OC(C)C(=O)N4)CC2)cc1` (centres unmarked) [Compound 347, 4-(4-((8-Cyclopropyl-2-methyl-3-oxo-3,4-dihydro-2H-benzo[b][1,4]oxazin-6-yl)methyl)piperazin-1-yl)-N-methylbenzamide], the midpoint of inhibition on PARP, the IC50, lay at 100 nM. The PF50 in the test on Jurkat cell line came out at 10.1.

At PARP, `CC1Oc2c(cc(CN3CCN(c4ccc(C(=O)NC5CC5)cc4)CC3)cc2-c2ccccc2)NC1=O` (centres unmarked) [Compound 351, N-Cyclopropyl-4-(4-((2-methyl-3-oxo-8-phenyl-3,4-dihydro-2H-benzo[b][1,4]oxazin-6-yl)methyl)piperazin-1-yl)benzamide] gave an IC50 of over 200 nM. Also, in the test with Jurkat cell line, the PF50 worked out at 1.0.

Consider `CNC(=O)c1ccc(N2CCN(Cc3cc(F)c4c(c3)NC(=O)C(C)O4)CC2)nc1` (centres unmarked) [Compound 314, 6-(4-((8-Fluoro-2-methyl-3-oxo-3,4-dihydro-2H-benzo[b][1,4]oxazin-6-yl)methyl)piperazin-1-yl)-N-methylnicotinamide], for which the IC50 on PARP is 31.6 nM. For the same molecule, in the test on Jurkat cell line, the PF50 is given as 1.8.

In the case of `CC1Oc2c(cc(CN3CCN(c4ccc(C(=O)NC5CC5)cc4)CC3)cc2C2CC2)NC1=O` (centres unmarked) [Compound 348, N-Cyclopropyl-4-(4-((8-cyclopropyl-2-methyl-3-oxo-3,4-dihydro-2H-benzo[b][1,4]oxazin-6-yl)methyl)piperazin-1-yl)benzamide], inhibition against PARP was half-maximal at 251 nM (IC50). Further, in the test with Jurkat cell line, the PF50 is given as over 5.

Regarding `CC1Oc2cc(F)c(CN3CCN(c4ccc(C#N)cc4)CC3)cc2NC1=O` (centres unmarked) [Compound 339, 4-(4-((7-Fluoro-2-methyl-3-oxo-3,4-dihydro-2H-benzo[b][1,4]oxazin-6-yl)methyl)piperazin-1-yl)benzonitrile], on PARP, half-maximal inhibition (IC50) was put at 79.4 nM. Further, the PF50 in the test with Jurkat cell line turned out to be 1.0.

In the case of `CC1Oc2ccc(CN3CCN(c4ccc(C(=O)N5CCCC5)cc4)CC3)cc2NC1=O` (centres unmarked) [Compound 377, 2-Methyl-6-((4-(4-(pyrrolidine-1-carbonyl)phenyl)piperazin-1-yl)methyl)-2H-benzo[b][1,4]oxazin-3(4H)-one], the IC50 at PARP is over 200 nM. Moreover, the PF50 in the test on Jurkat cell line is given as 1.0.

On to `CNC(=O)c1ccc(N2CCN(Cc3cc4c(c(OC)c3)OC(C)C(=O)N4)CC2)c(C)c1` (centres unmarked) [Compound 362, 4-(4-((8-Methoxy-2-methyl-3-oxo-3,4-dihydro-2H-benzo[b][1,4]oxazin-6-yl)methyl)piperazin-1-yl)-N,3-dimethylbenzamide], for which the IC50 on PARP was 31.6 nM. In addition, the PF50 in the test with Jurkat cell line is over 1700.

Take `CCNC(=O)c1ccc(N2CCN(Cc3ccc4c(c3)NC(=O)[C@H](C)O4)CC2)cc1` [Compound 249, (S)-N-Ethyl-4-(4-((2-methyl-3-oxo-3,4-dihydro-2H-benzo[b][1,4]oxazin-6-yl)methyl)piperazin-1-yl)benzamide]: at PARP, the IC50 is at most 31.6 nM. The PF50 with Jurkat cell line was 1.0-1.9.

In turn, `COc1cc(CN2CCN(c3ccc(C(=O)NC4CC4)cc3F)CC2)cc2c1OC(C)C(=O)N2` (centres unmarked) [Compound 372, N-Cyclopropyl-3-fluoro-4-{4-[(8-methoxy-2-methyl-3-oxo-3,4-dihydro-2H-1,4-benzoxazin-6-yl)methyl]piperazin-1-yl}benzamide] gave an IC50 at PARP of 20 nM. In the test on Jurkat cell line, the PF50 was determined as 1.0.

With `CC1Oc2cc(F)c(CN3CCN(c4ccc(C(=O)NC5CC5)cc4)CC3)cc2NC1=O` (centres unmarked) [Compound 338, N-Cyclopropyl-4-(4-((7-fluoro-2-methyl-3-oxo-3,4-dihydro-2H-benzo[b][1,4]oxazin-6-yl)methyl)piperazin-1-yl)benzamide], the IC50 at PARP is 79.4 nM. Further, in the test on Jurkat cell line, the PF50 is on record as 0.4.

As for `CNC(=O)c1ccc(N2CCN(Cc3cc4c(c(OC)c3)OC(C)C(=O)N4)CC2)c(Cl)c1` (centres unmarked) [Compound 366, 3-Chloro-4-(4-((8-methoxy-2-methyl-3-oxo-3,4-dihydro-2H-benzo[b][1,4]oxazin-6-yl)methyl)piperazin-1-yl)-N-methylbenzamide], the IC50 at PARP is 25.1 nM. Moreover, in the test on Jurkat cell line, the PF50 is 4.6.

As to `CC1Oc2c(Cl)cc(CN3CCN(c4ccc(Cl)cc4)CC3)cc2NC1=O` (centres unmarked) [Compound 167, 8-Chloro-6-((4-(4-chlorophenyl)piperazin-1-yl)methyl)-2-methyl-2H-benzo[b][1,4]oxazin-3(4H)-one], the concentration for half-maximal inhibition (IC50) against PARP was 39.8 to 100 nM. The PF50 result in the test with Jurkat cell line is reported as “≦0.9”.

As to `CCNC(=O)c1ccc(N2CCN(Cc3cc4c(c(OC(F)F)c3)OC(C)C(=O)N4)CC2)cc1` (centres unmarked) [Compound 404, 4-(4-((8-(Difluoromethoxy)-2-methyl-3-oxo-3,4-dihydro-2H-benzo[b][1,4]oxazin-6-yl)methyl)piperazin-1-yl)-N-ethylbenzamide], half-maximal inhibition at PARP (IC50) was put at 31.6 nM. The PF50 with Jurkat cell line is listed as over 2.0.

The molecule `CCNC(=O)c1ccc(N2CCN(Cc3cc(C)c4c(c3)NC(=O)C(C)O4)CC2)cc1` (centres unmarked) [Compound 258, 4-(4-((2,8-Dimethyl-3-oxo-3,4-dihydro-2H-benzo[b][1,4]oxazin-6-yl)methyl)piperazin-1-yl)-N-ethylbenzamide] gave a half-maximal inhibitory concentration (IC50) on PARP of at most 31.6 nM. Also, the PF50 result with Jurkat cell line is “≧10.0”.

`CC1Oc2ccc(Cn3ncc4ccccc43)cc2NC1=O` (centres unmarked) [Compound 345, 6-((1H-Indazol-1-yl)methyl)-2-methyl-2H-benzo[b][1,4]oxazin-3(4H)-one]: the IC50 on PARP is 79.4 nM. In addition, the PF50 in the test with Jurkat cell line is reported as 1.2.
